# “And” between values parts separate entries of the source, which are not always exact repeats. Equal values may be shown once.
# How the values were obtained:
# [1] = biological target: T1, CYP2D6 (Homo sapiens, UniProt P10635); experiment: Cytochrome P450 profiling, quinidine; format: in vitro ADME; settings: for % PU-HZ151 remaining: Quinidine
# T1 construct: tissue Life Technologies HMMCPL; host or cells: human liver microsomes
# Procedure: (§1) To identify cytochrome P450 enzymes responsible for PU-HZ151’s metabolism in human liver microsomes the following procedure was followed. Phosphate buffer (100 mM, pH 7.4) was prepared monthly and stored at 4 °C. Frozen stock solutions of human liver microsomes (Life Technologies; Cat# HMMCPL) were used once after thawing and were not refrozen. NADPH stock solution (50 mM) in distilled water was prepared fresh daily. […] The stock solutions of these P450 inhibitors were prepared in DMSO. […] The concentration of the chemical inhibitors used in the assay were furafylline (10 μM), tranylcypromine (2 μM), ketoconazole (1 μM), troleandomycin (20 μM), orphenadrine (50 μM), montelukast (3 μM), sulfaphenazole (10 μM), benzylnirvanol (1 μM), quinidine (1 μM), and 1-aminobenzotriazole (1 mM) for all the P450 enzymes. Timing of the reactions was started following the addition of NADPH/magnesium chloride mix and PU-HZ151. Time-dependent chemical inhibitors (furafylline, troleandomycin, orphenadrine, and 1-aminobenzotriazole) were preincubated with human microsomes in the presence of NADPH and magnesium chloride for 15 min before the addition of PU-HZ151 and timing of reactions was started after addition of PU-HZ151. […] Following brief vortexing and centrifugation, a 200 µL aliquot of the supernatant was transferred to a tube, and 10 µL of haloperidol (1 µg mL^−1) as internal standard was added. Following brief vortexing and centrifugation, 50 µL of supernatant was added to a 96-well plate for subsequent LC-MS/MS analysis. PU-HZ151 was similarly tested as above in the absence of CYP inhibitors for comparative purposes. All samples were assayed in duplicate. […] This was similarly performed for incubations of PU-HZ151 performed in the absence of CYP inhibitor.
# [2] = system: CYP3A; experiment: Cytochrome P450 profiling, ketoconazole; format: in vitro ADME, human; settings: for % PU-HZ151 remaining: Ketoconazole
# Procedure: as §1
# [3] = Metabolic stability in liver microsomes; format: in vitro ADME, human; settings: No inhibitor
# Procedure: All samples were assayed in duplicate.
# To identify cytochrome P450 enzymes responsible for PU-HZ151’s metabolism in human liver microsomes the following procedure was followed. Phosphate buffer (100 mM, pH 7.4) was prepared monthly and stored at 4 °C. Frozen stock solutions of human liver microsomes (Life Technologies; Cat# HMMCPL) were used once after thawing and were not refrozen. NADPH stock solution (50 mM) in distilled water was prepared fresh daily. Stock solutions of PU-HZ151 (1 mM in DMSO) and CYP inhibitors, furafylline (10 mM) for CYP1A2, tranylcypromine (2 mM) for CYP2A6, ketoconazole (1 mM) for CYP3A, troleandomycin (20 mM) for CYP3A4, orphenadrine (50 mM) for CYP2B6, montelukast (3 mM) for CYP2C8, sulfaphenazole (10 mM) for CYP2C9, benzylnirvanol (1 mM) for CYP2C19, quinidine (1 mM) for CYP2D6, and 1-aminobenzotriazole (1 mM) for all the P450 enzymes were stored at −20 °C. The stock solutions of these P450 inhibitors were prepared in DMSO. General procedure: PU-HZ151 (1 µM) was incubated with human liver microsomes (0.5 mg protein mL^−1), 2.5 mM NADPH, 3.3 mM magnesium chloride, and chemical inhibitors (various concentrations) in phosphate buffer (100 mM, pH 7.4) at 37 °C for up to 60 min. […] The concentration of the chemical inhibitors used in the assay were furafylline (10 μM), tranylcypromine (2 μM), ketoconazole (1 μM), troleandomycin (20 μM), orphenadrine (50 μM), montelukast (3 μM), sulfaphenazole (10 μM), benzylnirvanol (1 μM), quinidine (1 μM), and 1-aminobenzotriazole (1 mM) for all the P450 enzymes. Timing of the reactions was started following the addition of NADPH/magnesium chloride mix and PU-HZ151. Time-dependent chemical inhibitors (furafylline, troleandomycin, orphenadrine, and 1-aminobenzotriazole) were preincubated with human microsomes in the presence of NADPH and magnesium chloride for 15 min before the addition of PU-HZ151 and timing of reactions was started after addition of PU-HZ151. […]
# [4] = biological target: T2, CYP2B6 (Homo sapiens, UniProt P20813); experiment: Cytochrome P450 profiling, orphenadrine; format: in vitro ADME; settings: for % PU-HZ151 remaining: Orphenadrine
# T2 construct: tissue Life Technologies HMMCPL; host or cells: human liver microsomes
# T2 sequence (P20813 1-491): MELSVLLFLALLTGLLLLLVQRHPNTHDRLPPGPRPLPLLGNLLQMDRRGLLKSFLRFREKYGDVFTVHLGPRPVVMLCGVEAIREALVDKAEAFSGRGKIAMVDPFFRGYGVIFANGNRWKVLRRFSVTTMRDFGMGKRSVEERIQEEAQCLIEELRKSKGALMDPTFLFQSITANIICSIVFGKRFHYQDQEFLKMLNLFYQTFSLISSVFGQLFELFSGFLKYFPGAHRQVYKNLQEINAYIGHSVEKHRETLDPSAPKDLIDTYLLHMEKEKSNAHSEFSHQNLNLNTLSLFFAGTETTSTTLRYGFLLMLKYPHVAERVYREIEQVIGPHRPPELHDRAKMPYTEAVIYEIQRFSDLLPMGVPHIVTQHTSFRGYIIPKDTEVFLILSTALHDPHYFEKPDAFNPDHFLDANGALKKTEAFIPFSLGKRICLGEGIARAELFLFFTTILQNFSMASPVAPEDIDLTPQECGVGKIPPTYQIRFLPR
# Procedure: as §1
# [5] = system: all the P450 enzymes; experiment: Cytochrome P450 profiling, 1-aminobenzotriazole; format: in vitro ADME, human; settings: for % PU-HZ151 remaining: ABT
# Procedure: as §1
# [6] = biological target: HSP90 pools in JNPL3 (AD transgenic) mouse brain lysate; experiment: Fluorescence polarization (FP) competitive binding, cy3B-GM; settings: read-out: FP relative affinity
# [7] = system: epichaperomes in MDA-MB-468 cells; experiment: Epichaperome modulation, Native PAGE; format: cell-based, human
# T1 sequence (P10635 whole entry): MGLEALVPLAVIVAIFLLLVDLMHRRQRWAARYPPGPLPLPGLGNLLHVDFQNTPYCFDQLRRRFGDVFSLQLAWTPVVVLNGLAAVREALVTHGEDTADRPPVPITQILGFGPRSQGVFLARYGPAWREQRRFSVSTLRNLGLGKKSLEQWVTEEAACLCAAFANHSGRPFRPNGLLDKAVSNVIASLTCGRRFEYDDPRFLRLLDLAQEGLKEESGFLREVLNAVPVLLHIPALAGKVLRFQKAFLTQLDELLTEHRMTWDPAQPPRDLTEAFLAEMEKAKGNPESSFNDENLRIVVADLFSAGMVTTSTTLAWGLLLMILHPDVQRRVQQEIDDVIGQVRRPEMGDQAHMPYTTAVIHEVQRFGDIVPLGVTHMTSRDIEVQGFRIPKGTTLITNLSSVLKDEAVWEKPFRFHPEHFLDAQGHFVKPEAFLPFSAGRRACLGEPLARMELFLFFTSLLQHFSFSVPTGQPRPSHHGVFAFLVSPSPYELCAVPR
structure (smiles),measurement,setting,value
CC(C)(C)CNCCn1c(Sc2cc3c(cc2I)OCO3)nc2c(N)ncnc21 [Compound 85],% PU-HZ151 remaining,[1]; 15 min,62.9%
same,% PU-HZ151 remaining,[1]; 30 min,43.9%
same,% PU-HZ151 remaining,[1]; 60 min,26.6%
same,inhibition of PU-HZ151 metabolism,[1]; quinidine,11%
same,% PU-HZ151 remaining,[2]; 15 min,76.5%
same,% PU-HZ151 remaining,[2]; 30 min,63.5%
same,% PU-HZ151 remaining,[2]; 60 min,50.6%
same,inhibition of PU-HZ151 metabolism,[2]; ketoconazole,40%
same,% PU-HZ151 remaining,[3]; 15 min,52.7%
same,% PU-HZ151 remaining,[3]; 30 min,34.7%
same,% PU-HZ151 remaining,[3]; 60 min,17.2%
same,% PU-HZ151 remaining,[4]; 15 min,62%
same,% PU-HZ151 remaining,[4]; 30 min,42.7%
same,% PU-HZ151 remaining,[4]; 60 min,25.6%
same,inhibition of PU-HZ151 metabolism,[4]; orphenadrine,10%
same,inhibition of PU-HZ151 metabolism,[5]; 1-aminobenzotriazole,75%
same,% PU-HZ151 remaining,[5]; 15 min,90.5%
same,% PU-HZ151 remaining,[5]; 30 min,83.9%
same,% PU-HZ151 remaining,[5]; 60 min,79.6%
same,EC50,[6],5 nM
same,"Epichaperome modulation (Native PAGE), R1-R3",[7]; [PU-HZ151] 0.05 uM,101.613 and 126.223 and 117.544
same,"Epichaperome modulation (Native PAGE), R1-R3",[7]; [PU-HZ151] 0.1 uM,92.742 and 86.889 and 60.276
